Reference: ChEMBL document CHEMBL1201862, “PubChem BioAssay data set” (2004)
Calls of active or inactive are those of the source.

Experiments:
HeLa = assay: Cytotoxicity counterscreen assay for transcriptional activators of heat shock protein 70 (Hsp70). [Related pubchem assays: 1203, 1252 ]; assay type: functional; conditions: Homo sapiens;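 further: cells exposed to compound for 16 hours before readout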
[1] = biological target: T1, Heat shock factor protein 1 (Mus musculus, UniProt P38532); assay: decrease of HSF1-responsive luciferase luminescence – cell-based, NIH3T3, dose retest, confirmation (AID 2382); assay type: functional;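 further: NIH3T3 fibroblasts with HSF1-driven luciferase reporter stressed by proteasome inhibitor MG132; luminescence from HSF1-driven luciferase expression after 8 hours of MG132 stress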
T1 sequence (P38532 whole entry): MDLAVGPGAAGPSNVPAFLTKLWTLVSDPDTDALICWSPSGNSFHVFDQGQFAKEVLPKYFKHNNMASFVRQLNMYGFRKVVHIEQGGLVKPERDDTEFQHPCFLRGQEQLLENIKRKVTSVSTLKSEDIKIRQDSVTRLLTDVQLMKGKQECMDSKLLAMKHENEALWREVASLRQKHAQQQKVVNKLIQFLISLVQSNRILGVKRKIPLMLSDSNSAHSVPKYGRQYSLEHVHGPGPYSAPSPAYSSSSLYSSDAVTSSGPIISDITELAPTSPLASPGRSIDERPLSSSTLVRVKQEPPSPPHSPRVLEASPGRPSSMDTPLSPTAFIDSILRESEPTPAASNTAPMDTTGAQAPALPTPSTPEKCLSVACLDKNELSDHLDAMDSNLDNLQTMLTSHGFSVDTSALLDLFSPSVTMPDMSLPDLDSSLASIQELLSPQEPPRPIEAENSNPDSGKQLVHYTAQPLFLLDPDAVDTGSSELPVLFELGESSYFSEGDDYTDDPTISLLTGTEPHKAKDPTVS

BJ = assay: BJ-TERT-LT-ST fibroblast viability loss – cell-based, RAS-independent, luminescence, dose response (AID 1935); assay type: functional; conditions: Homo sapiens;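 further: BJ fibroblasts immortalized with TERT plus LT and ST oncogenes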
[2] = biological target: Sphingosine 1-phosphate receptor 1 (Homo sapiens, UniProt P21453); assay type: functional;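 further: Tango beta-arrestin reporter U2OS cells stimulated with S1P near its EC80; inhibitor potency meaning antagonism of receptor activation by the natural agonist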
[3] = biological target: Neurotensin receptor type 1 (Homo sapiens, UniProt P30989); assay type: functional;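 further: Image-based confirmatory dose-response assay measuring agonist activity at NTR1; NTR1-expressing U2OS osteosarcoma cells imaged for beta-arrestin GFP spot formation; agonist potency where compounds increase beta-arrestin recruitment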
[4] = HEK-293T viability loss after treatment – luminescence, T-cell screen hits, cytotoxicity control for TCR NF-kB inhibitor project, dose response (AID 489026); assay type: functional, cell-based;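 further: cells exposed to compound about 14 hours before the viability readout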
[5] = loss of viability in HepG2 cells – cell-based, CellTiter-Glo, cherry-picked, cytotoxicity control for Shn3 inhibitor project, dose response (AID 624134); assay type: functional
[6] = non-specific 3'UTR reporter inhibition in Clone20-Shn3RL – cell-based, Renilla luciferase, cherry-picked, counter-screen for Shn3 inhibitor project, dose response (AID 624133); assay type: functional
Vero [7] = assay: cells; assay type: functional, cell-based; conditions: Chlorocebus sabaeus
Vero [8] = assay: cells; assay type: functional; conditions: Chlorocebus sabaeus
Beta-galactosidase = Beta-galactosidase (Escherichia coli, UniProt Q8VNN2); assay: PubChem AID 485352; assay type: functional
[9] = biological target: T2, Mannose-6-phosphate isomerase (Homo sapiens, UniProt P34949); assay: MPI inhibition at elevated mannose 6-phosphate – biochemical, fluorescence intensity, high mannose 6-phosphate, primary screen (AID 1220)
T2 sequence (P34949 whole entry): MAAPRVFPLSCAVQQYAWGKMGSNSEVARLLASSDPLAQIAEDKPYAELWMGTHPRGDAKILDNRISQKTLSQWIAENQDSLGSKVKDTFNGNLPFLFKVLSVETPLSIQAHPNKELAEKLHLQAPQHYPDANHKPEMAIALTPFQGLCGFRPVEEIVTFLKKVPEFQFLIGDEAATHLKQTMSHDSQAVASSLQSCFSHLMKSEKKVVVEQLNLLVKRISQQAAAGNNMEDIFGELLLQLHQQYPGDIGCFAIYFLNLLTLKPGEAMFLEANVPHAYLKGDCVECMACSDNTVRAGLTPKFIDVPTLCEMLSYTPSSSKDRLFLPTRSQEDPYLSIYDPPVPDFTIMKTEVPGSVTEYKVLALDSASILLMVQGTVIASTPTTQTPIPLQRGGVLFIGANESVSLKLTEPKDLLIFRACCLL

[10] = biological target: Potassium voltage-gated channel subfamily KQT member 2 (Rattus norvegicus, UniProt O88943, W236L); assay: potentiation of rat KCNQ2 current – cell-based, automated electrophysiology, mechanism study for KCNQ2 potentiator project, dose response (AID 2603); assay type: functional
[11] = biological target: T3, 1-phosphatidylinositol 4,5-bisphosphate phosphodiesterase beta-3 (Homo sapiens, UniProt Q01970); assay: Fluorescence-based biochemical high throughput dose response assay to identify inhibitors of phospholipase C isozymes (PLC-B3).
T3 sequence (Q01970 whole entry): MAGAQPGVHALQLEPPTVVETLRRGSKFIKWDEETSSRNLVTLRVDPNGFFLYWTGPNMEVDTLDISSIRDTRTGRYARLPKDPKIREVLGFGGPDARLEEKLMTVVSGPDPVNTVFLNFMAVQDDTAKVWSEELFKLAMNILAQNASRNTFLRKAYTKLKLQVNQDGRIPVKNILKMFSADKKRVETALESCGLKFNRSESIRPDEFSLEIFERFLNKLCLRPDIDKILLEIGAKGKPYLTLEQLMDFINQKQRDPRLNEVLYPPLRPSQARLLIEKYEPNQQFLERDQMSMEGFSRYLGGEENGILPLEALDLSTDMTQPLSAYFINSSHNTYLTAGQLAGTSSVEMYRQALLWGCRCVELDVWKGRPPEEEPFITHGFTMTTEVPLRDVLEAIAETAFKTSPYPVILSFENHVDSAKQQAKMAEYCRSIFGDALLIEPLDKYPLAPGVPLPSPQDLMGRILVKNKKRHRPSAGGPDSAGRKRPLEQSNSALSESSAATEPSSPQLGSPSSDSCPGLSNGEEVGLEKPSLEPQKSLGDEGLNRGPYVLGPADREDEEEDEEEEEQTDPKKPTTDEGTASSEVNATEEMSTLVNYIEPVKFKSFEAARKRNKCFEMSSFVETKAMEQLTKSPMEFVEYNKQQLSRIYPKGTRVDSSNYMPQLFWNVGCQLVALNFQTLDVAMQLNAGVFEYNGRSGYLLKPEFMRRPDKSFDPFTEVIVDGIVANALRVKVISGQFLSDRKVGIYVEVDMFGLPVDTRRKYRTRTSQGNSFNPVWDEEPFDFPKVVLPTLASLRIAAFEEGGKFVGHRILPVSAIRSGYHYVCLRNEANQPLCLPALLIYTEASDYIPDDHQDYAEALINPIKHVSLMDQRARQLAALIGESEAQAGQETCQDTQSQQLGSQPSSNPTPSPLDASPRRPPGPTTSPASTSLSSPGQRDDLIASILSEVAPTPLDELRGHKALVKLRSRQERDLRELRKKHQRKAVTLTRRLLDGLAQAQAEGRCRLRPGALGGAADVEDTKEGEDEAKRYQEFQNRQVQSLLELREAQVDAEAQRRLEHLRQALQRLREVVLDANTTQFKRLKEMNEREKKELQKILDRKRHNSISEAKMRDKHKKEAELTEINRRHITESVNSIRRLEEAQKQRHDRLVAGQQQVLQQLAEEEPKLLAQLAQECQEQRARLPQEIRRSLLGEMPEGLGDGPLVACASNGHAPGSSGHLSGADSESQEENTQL

[12] = viability of HCT116 lacking mutant beta-catenin – cell-based, human colon tumor, dose response (AID 1045); assay type: functional;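 further: HCT116 colon tumor cells with beta catenin knocked out; cells exposed to compound for 60 hours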
[13] = biological target: C-C chemokine receptor type 6 (Homo sapiens, UniProt P51684); assay: antagonism of CCR6 beta-arrestin recruitment – cell-based, luminescent beta-arrestin readout, dose response (AID 504728); assay type: functional
Chain of C-C chemokine receptor type 6 (P51684 whole entry): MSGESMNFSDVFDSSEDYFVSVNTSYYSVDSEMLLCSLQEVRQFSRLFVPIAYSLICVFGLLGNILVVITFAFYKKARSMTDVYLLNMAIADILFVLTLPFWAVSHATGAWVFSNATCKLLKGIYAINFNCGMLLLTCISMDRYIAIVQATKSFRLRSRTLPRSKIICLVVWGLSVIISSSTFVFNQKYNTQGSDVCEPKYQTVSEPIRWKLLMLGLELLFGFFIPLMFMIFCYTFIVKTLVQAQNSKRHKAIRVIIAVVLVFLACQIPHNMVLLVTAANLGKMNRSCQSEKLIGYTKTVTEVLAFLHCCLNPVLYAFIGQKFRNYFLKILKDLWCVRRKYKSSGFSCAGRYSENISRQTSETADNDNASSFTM

Chain of Sphingosine 1-phosphate receptor 1 (P21453 whole entry): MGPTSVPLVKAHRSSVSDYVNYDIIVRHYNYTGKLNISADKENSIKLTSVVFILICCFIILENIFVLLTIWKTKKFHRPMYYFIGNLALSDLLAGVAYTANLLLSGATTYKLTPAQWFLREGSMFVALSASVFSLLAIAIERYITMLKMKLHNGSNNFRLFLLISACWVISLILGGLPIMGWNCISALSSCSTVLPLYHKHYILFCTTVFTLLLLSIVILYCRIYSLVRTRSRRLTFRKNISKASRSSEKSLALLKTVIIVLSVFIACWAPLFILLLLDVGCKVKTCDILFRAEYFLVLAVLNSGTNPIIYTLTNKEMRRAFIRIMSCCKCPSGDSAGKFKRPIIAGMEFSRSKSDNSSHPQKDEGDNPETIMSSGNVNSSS
Chain of Beta-galactosidase (Q8VNN2 whole entry): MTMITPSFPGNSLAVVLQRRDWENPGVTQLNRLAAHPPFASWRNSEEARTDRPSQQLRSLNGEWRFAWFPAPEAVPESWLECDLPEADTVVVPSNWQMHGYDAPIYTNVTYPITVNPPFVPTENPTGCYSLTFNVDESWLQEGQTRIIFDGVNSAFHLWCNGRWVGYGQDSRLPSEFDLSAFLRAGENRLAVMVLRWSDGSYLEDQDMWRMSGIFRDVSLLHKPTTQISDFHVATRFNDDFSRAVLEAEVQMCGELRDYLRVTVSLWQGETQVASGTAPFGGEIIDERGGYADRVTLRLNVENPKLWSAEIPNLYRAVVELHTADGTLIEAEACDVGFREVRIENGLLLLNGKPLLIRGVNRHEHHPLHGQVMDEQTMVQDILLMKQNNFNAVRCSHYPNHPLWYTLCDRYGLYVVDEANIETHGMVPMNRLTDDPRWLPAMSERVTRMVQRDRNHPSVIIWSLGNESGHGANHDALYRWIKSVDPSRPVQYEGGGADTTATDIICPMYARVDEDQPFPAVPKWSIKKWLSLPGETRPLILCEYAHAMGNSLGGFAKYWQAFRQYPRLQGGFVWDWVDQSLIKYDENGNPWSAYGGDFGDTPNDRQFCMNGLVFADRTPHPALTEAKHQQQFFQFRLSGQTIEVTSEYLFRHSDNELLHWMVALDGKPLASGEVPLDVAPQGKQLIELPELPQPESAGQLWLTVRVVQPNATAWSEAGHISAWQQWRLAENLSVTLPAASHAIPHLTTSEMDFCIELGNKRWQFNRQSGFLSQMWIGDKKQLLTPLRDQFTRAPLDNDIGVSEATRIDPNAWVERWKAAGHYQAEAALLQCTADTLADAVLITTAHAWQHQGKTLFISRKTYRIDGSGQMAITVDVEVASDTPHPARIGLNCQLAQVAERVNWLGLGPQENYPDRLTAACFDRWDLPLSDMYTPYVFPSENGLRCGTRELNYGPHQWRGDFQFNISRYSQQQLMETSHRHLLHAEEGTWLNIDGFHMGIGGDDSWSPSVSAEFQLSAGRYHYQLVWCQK
Chain of Neurotensin receptor type 1 (P30989 whole entry): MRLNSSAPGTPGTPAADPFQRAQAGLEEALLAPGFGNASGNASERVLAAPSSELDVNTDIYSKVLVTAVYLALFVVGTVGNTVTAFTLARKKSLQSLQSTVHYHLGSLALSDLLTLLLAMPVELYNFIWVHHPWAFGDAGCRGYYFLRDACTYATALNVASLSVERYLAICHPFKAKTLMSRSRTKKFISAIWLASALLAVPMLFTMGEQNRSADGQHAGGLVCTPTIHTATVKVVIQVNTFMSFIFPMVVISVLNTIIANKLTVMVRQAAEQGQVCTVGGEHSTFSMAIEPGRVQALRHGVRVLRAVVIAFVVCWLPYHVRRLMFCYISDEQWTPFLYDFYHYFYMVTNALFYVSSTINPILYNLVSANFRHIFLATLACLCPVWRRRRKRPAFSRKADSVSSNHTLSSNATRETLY
Chain of Potassium voltage-gated channel subfamily KQT member 2 (O88943 whole entry W236L): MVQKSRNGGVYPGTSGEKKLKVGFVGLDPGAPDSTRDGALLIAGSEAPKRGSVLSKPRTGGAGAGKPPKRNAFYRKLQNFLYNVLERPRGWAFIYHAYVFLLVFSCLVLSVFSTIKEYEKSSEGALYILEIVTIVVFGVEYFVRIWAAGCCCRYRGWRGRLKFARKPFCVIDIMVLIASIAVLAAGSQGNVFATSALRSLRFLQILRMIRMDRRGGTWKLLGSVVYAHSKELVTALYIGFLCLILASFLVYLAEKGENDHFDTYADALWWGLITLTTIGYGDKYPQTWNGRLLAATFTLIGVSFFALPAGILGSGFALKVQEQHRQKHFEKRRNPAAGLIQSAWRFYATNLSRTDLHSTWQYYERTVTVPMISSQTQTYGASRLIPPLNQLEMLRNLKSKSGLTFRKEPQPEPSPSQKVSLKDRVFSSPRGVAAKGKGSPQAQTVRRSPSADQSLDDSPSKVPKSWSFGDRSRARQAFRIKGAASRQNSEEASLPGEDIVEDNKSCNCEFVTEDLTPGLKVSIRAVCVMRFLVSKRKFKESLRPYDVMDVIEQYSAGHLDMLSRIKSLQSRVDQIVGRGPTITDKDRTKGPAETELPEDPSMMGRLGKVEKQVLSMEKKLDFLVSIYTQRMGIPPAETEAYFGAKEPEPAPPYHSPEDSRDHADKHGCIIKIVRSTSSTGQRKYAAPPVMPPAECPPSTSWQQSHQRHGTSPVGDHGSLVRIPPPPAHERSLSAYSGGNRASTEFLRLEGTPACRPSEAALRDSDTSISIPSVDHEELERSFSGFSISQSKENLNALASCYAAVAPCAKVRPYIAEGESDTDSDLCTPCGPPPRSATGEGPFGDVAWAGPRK

Compound: COC(=O)C[C@]1(C(=O)OC)CN(C#N)N(c2ccc(Cl)cc2)C12c1ccccc1-c1ccccc12
- CC50 (HeLa): 3.55 µM (active)
- EC50 [1]: 2.74 µM (active)
- EC50 (BJ): 2.78 µM (inconclusive)
- IC50 [2]: 5.39 µM (active)
- EC50 [3]: 3.27 µM (active)
- IC50 [4]: > 80 µM (inactive)
- AC50 [5]: 4.76 µM (active)
- AC50 [6]: 1.67 µM (active)

Compound: O=C(Nc1ccc(C#Cc2ccccc2)cc1)C1CC1
- IC50 (Vero [7]): > 12.5 µM (active)
- CC50 (Vero [8]): > 25 µM (active)

Compound: CCCCn1c(NC(=O)c2ccco2)c(C(=O)OCC)c2nc3ccccc3nc21
- EC50 (Beta-galactosidase): > 40 µM (inactive)
- IC50 [9]: > 50 µM (not active)

Compound: Cc1ccccc1NC1=C/C(=N\S(=O)(=O)c2ccc(C(=O)O)cc2)c2ccccc2C1=O
- EC50 [10]: 9.51 µM (active)
- IC50 [11]: > 122 µM (inactive)

Compound: Cc1ccc(NC2=C/C(=N/S(=O)(=O)c3cccs3)c3ccccc3C2=O)cc1
- EC50 [12]: 2.82 µM (active)
- IC50 [13]: > 66.6 µM (inactive)
